# Laboratory results from US11084841B1, “Chitooligosaccharide-N-geraniol derivatives, methods for preparing and application thereof” (Jiangnan University, priority 2020, dated 2021).
# What was measured:
# Staphylococcus aureus = experiment: antibacterial activity test, culture plate with antibacterial substance; type: cell-based; settings: 1 mg/ml antibacterial substance, 37° C., 24 hours, versus control plate, FIG. 5
# Description: (§1) Gram negative and positive bacterium (Escherichia coli and Staphylococcus aureus) are selected for the antibacterial activity test. The bacteria strain was selected to grow in LB culture medium and sub-culture to the second generation in logarithmic phase. The bacterial suspension was diluted to the required concentration (10^5 CFU/ml) with normal saline. Under the aseptic condition, the bacterial solution and antibacterial substance solution (mix 5 μL bacterial solution and 5 mL LB liquid medium containing 1 mg/ml antibacterial substance) were added onto the culture plate and mixed evenly. The control group was the culture plate without antibacterial substance, and then the culture plates were incubated at 37° C. for 24 hours to observe the growth of bacteria.
# Escherichia coli = experiment: as above; type: cell-based; settings: 1 mg/ml antibacterial substance, 37° C., 24 hours, versus control plate, FIG. 6
# Description: as §1
compound,measurement,setting,value
"CC(C)=CCC/C(C)=C/CO [Ger, (2E)-3,7-dimethylocta-2,6-dien-1-ol]",inhibition of bacterial growth,Staphylococcus aureus,able to inhibit
same,inhibition of bacterial growth,Escherichia coli,able to inhibit
